Measured values reported in the kinase profiling compilation of Christmann-Franck et al. (2016).

What was measured:
Experiment in all cases: radiometric filter-binding kinase assay
AURKA (human) = AURKA (human) (UniProt O14965)
MAP3K1 (human) = MAP3K1 (human) (UniProt Q13233)
MAPK9 (human) = MAPK9 (human) (UniProt P45984)
MAP2K2 (human) = MAP2K2 (human) (UniProt P36507); conditions: compound 0.1 µM
PRKCZ (human) = PRKCZ (human) (UniProt Q05513)
CHEK1 (human) = CHEK1 (human) (UniProt O14757)
MYLK (human) = MYLK (human) (UniProt Q15746)
AURKB (human) = AURKB (human) (UniProt Q96GD4)
Sequence of AURKB (human) (Q96GD4 whole entry, looked up): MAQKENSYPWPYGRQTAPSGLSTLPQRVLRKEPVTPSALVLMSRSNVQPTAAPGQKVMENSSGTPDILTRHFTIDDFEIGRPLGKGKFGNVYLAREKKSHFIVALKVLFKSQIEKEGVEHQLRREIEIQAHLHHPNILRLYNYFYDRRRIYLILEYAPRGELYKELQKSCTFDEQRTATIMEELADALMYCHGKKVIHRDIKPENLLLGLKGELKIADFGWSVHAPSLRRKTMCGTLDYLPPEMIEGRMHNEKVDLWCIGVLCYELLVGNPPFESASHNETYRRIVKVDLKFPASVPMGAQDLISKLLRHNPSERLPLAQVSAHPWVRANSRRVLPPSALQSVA

EEF2K (human) = EEF2K (human) (UniProt O00418)
CSNK1D (human) = CSNK1D (human) (UniProt P48730)
MAP3K9 (human) = MAP3K9 (human) (UniProt P80192)
Sequence of MAP3K9 (human) (P80192 whole entry, looked up): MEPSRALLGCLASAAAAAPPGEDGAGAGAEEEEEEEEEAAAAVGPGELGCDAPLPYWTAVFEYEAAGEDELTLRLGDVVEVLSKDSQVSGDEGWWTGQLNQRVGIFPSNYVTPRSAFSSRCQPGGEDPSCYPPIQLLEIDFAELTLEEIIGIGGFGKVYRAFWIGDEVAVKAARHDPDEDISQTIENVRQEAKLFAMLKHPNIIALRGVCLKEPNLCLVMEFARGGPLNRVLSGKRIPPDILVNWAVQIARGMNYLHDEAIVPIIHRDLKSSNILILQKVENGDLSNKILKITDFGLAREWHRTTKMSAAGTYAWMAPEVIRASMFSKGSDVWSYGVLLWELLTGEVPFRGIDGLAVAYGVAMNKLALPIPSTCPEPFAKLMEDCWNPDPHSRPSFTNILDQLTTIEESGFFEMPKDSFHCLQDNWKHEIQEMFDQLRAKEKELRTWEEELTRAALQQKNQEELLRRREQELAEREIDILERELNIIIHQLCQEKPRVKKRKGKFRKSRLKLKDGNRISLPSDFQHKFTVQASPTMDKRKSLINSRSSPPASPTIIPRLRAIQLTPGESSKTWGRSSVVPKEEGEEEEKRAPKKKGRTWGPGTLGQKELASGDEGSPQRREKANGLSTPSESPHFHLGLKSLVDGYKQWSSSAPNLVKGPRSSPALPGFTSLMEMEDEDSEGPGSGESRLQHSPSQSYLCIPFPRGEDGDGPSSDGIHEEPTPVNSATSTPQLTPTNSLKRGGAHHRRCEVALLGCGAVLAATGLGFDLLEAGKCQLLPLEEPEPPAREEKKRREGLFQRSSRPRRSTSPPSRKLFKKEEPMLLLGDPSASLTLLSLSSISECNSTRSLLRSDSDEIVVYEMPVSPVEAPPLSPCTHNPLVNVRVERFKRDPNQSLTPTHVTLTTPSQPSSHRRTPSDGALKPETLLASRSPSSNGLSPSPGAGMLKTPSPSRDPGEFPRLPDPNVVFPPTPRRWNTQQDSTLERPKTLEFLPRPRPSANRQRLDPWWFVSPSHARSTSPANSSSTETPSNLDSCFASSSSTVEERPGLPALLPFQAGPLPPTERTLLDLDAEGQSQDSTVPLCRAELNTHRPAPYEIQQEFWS

PKN2 (human) = PKN2 (human) (UniProt Q16513)
Sequence of PKN2 (human) (Q16513 whole entry, looked up): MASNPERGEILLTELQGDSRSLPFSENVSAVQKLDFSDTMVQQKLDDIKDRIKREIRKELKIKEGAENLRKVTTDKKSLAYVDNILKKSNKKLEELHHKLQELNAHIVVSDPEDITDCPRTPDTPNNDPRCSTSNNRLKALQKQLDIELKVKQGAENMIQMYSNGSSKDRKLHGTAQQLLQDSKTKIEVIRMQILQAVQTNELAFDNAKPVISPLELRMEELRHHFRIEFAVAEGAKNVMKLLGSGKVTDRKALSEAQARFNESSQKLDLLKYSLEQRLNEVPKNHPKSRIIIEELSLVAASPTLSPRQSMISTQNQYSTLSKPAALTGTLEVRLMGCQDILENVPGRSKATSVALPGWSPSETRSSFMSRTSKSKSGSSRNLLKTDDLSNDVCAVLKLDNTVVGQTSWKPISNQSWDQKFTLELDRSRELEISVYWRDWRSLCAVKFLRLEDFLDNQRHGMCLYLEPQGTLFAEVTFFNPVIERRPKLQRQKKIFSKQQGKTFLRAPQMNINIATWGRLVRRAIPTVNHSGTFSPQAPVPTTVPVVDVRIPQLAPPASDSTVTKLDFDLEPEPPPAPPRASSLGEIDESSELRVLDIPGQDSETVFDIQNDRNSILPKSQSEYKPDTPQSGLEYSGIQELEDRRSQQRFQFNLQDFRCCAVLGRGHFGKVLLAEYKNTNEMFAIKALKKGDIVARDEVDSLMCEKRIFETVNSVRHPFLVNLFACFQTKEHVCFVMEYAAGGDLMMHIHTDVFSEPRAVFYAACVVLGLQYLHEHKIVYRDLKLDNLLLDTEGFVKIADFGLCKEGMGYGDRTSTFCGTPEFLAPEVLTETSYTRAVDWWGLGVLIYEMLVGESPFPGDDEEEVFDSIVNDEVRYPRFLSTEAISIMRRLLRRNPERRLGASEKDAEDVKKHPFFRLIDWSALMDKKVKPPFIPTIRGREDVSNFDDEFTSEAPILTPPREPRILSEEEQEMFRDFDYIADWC

HIPK2 (human) = HIPK2 (human) (UniProt Q9H2X6)
Sequence of HIPK2 (human) (Q9H2X6 whole entry, looked up): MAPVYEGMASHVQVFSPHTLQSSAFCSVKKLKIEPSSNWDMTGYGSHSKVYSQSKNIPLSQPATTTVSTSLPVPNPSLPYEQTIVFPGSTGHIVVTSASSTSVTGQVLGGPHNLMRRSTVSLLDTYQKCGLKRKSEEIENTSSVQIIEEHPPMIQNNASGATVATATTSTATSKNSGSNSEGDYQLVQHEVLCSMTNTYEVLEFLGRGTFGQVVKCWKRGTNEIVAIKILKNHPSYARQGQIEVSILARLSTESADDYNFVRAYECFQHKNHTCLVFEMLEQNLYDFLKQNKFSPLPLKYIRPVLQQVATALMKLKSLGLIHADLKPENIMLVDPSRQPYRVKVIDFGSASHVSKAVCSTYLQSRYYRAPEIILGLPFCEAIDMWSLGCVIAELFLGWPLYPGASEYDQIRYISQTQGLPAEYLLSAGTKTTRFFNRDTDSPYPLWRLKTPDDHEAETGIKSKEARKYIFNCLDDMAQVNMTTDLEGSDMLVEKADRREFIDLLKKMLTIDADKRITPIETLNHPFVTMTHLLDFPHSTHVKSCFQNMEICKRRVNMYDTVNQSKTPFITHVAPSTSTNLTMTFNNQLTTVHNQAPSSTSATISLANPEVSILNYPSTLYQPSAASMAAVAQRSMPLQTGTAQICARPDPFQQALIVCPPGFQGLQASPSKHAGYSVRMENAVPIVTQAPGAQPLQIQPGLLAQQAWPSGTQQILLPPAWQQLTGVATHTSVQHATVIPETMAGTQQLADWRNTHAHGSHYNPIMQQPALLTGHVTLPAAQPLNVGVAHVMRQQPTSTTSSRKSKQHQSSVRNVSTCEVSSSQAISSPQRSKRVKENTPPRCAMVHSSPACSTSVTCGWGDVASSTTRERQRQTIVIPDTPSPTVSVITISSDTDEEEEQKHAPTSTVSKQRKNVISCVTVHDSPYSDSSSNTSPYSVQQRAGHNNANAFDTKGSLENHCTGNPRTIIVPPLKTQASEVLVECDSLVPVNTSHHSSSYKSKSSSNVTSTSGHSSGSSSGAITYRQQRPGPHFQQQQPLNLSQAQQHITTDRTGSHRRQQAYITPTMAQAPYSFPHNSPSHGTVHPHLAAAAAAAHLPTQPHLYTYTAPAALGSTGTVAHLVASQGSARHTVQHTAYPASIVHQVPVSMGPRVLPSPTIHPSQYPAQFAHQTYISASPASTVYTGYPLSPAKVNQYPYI

IGF1R (human) = IGF1R (human) (UniProt P08069)
EPHB4 (human) = EPHB4 (human) (UniProt P54760)
FLT1 (human) = FLT1 (human) (UniProt P17948)
[1] = system: PAK2 (human), Q13177 [T402E]
[2] = system: AKT2 (human), P31751 [S474D]
MARK4 (human) = MARK4 (human) (UniProt Q96L34)
TTK (human) = TTK (human) (UniProt P33981)
FGFR1 (human) = FGFR1 (human) (UniProt P11362)
PAK6 (human) = PAK6 (human) (UniProt Q9NQU5)
MAPK1 (human) = MAPK1 (human) (UniProt P28482)
Sequence of MAPK1 (human) (P28482 whole entry, looked up): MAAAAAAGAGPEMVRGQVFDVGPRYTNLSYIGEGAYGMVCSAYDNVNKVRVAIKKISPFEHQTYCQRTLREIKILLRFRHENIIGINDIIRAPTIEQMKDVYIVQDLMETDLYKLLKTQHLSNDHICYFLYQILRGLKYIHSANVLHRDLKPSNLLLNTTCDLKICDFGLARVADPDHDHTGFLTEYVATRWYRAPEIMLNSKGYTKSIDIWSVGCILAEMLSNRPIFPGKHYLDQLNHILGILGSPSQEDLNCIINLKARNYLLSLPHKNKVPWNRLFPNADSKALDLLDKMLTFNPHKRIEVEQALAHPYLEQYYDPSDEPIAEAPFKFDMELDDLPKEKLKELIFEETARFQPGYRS

[3] = target: STK11 CAB39 STRADA (human) (UniProt Q9Y376+Q7RTN6+Q15831)
MAPK13 (human) = MAPK13 (human) (UniProt O15264)
MAP3K5 (human) = MAP3K5 (human) (UniProt Q99683); conditions: compound 0.1 µM
YES1 (human) = YES1 (human) (UniProt P07947)
EPHB1 (human) = EPHB1 (human) (UniProt P54762); conditions: compound 0.1 µM
MAPK10 (human) = MAPK10 (human) (UniProt P53779)
GSK3B (human) = GSK3B (human) (UniProt P49841)
MELK (human) = MELK (human) (UniProt Q14680)
Sequence of MELK (human) (Q14680 whole entry, looked up): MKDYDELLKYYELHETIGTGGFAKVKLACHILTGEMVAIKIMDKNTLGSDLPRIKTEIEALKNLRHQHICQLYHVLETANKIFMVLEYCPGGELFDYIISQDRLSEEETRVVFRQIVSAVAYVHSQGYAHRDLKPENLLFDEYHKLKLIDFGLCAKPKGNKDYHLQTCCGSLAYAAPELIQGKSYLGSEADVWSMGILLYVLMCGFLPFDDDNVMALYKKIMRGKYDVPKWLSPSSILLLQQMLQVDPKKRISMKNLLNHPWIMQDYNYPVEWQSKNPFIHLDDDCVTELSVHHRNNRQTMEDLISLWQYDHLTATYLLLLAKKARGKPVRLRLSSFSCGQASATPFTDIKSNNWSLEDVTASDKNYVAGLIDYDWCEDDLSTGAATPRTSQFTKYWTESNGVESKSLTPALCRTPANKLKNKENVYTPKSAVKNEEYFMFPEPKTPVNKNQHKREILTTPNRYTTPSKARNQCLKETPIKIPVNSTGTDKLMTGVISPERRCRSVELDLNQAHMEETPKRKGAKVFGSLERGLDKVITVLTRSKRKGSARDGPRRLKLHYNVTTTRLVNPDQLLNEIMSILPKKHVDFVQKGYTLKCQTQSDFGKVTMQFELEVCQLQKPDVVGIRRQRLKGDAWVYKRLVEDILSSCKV

HIPK1 (human) = HIPK1 (human) (UniProt Q86Z02)
SRC (human) = SRC (human) (UniProt P12931)
SYK (human) = SYK (human) (UniProt P43405)
GCK (human) = GCK (human) (UniProt Q12851)

Sequence of MAPK9 (human) (P45984 whole entry, looked up): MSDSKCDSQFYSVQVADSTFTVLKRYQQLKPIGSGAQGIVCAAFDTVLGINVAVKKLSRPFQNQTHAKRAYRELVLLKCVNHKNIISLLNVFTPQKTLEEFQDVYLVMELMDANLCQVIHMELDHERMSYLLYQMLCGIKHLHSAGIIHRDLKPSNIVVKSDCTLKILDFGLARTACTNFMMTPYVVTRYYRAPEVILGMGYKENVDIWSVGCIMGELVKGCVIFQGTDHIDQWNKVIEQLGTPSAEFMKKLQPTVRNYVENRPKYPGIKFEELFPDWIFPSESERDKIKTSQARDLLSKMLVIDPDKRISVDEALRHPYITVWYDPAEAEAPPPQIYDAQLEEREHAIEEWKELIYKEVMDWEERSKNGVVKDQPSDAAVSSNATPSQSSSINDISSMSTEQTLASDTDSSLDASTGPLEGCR

CN1CCN(CCOc2cc(OC3CCOCC3)c3c(Nc4c(Cl)ccc5c4OCO5)ncnc3c2)CC1
residual activity (AURKA (human); compound 0.1 µM): 112%
residual activity (MAP3K1 (human); compound 0.1 µM): 84%
residual activity (MAPK9 (human); compound 0.1 µM): 88%
residual activity (MAP2K2 (human)): 107%
residual activity (PRKCZ (human); compound 0.1 µM): 101%
residual activity (CHEK1 (human); compound 0.1 µM): 106%
residual activity (MYLK (human); compound 0.1 µM): 97%
residual activity (AURKB (human); compound 0.1 µM): 82%
residual activity (EEF2K (human); compound 0.1 µM): 65%
residual activity (CSNK1D (human); compound 0.1 µM): 115%
residual activity (MAP3K9 (human); compound 0.1 µM): 86%
residual activity (PKN2 (human); compound 0.1 µM): 103%
residual activity (HIPK2 (human); compound 0.1 µM): 80%
residual activity (IGF1R (human); compound 0.1 µM): 97%
residual activity (EPHB4 (human); compound 0.1 µM): 76%
residual activity (FLT1 (human); compound 0.1 µM): 116%
residual activity ([1]; compound 0.1 µM): 94%
residual activity ([2]; compound 0.1 µM): 86%
residual activity (MARK4 (human); compound 0.1 µM): 95%
residual activity (TTK (human); compound 0.1 µM): 112%
residual activity (FGFR1 (human); compound 0.1 µM): 110%
residual activity (PAK6 (human); compound 0.1 µM): 90%
residual activity (MAPK1 (human); compound 0.1 µM): 100%
residual activity ([3]; compound 0.1 µM): 112%
residual activity (MAPK13 (human); compound 0.1 µM): 91%
residual activity (MAP3K5 (human)): 100%
residual activity (YES1 (human); compound 0.1 µM): 4%
residual activity (EPHB1 (human)): 81%
residual activity (MAPK10 (human); compound 0.1 µM): 116%
residual activity (GSK3B (human); compound 0.1 µM): 101%
residual activity (MELK (human); compound 0.1 µM): 106%

NC(=O)c1cc2c(-c3cccc(-c4ccccc4)c3)cnc(N)c2s1
residual activity (AURKA (human); compound 0.1 µM): 95%
residual activity (AURKA (human); compound 1.0 µM): 99%
residual activity (AURKA (human); compound 10.0 µM): 89%
residual activity (MAP3K1 (human); compound 0.1 µM): 108%
residual activity (MAP3K1 (human); compound 1.0 µM): 73%
residual activity (MAP3K1 (human); compound 10.0 µM): 30%
residual activity (MAPK9 (human); compound 0.1 µM): 107%
residual activity (MAPK9 (human); compound 1.0 µM): 82%
residual activity (MAPK9 (human); compound 10.0 µM): 33%
residual activity (HIPK1 (human); compound 0.1 µM): 86%
residual activity (HIPK1 (human); compound 1.0 µM): 37%
residual activity (HIPK1 (human); compound 10.0 µM): 13%
residual activity (PRKCZ (human); compound 0.1 µM): 108%
residual activity (PRKCZ (human); compound 1.0 µM): 93%
residual activity (PRKCZ (human); compound 10.0 µM): 82%
residual activity (SRC (human); compound 0.1 µM): 100%
residual activity (SRC (human); compound 1.0 µM): 89%
residual activity (SRC (human); compound 10.0 µM): 108%
residual activity (CHEK1 (human); compound 0.1 µM): 100%
residual activity (CHEK1 (human); compound 1.0 µM): 64%
residual activity (CHEK1 (human); compound 10.0 µM): 29%
residual activity (MYLK (human); compound 0.1 µM): 98%
residual activity (MYLK (human); compound 1.0 µM): 53%
residual activity (MYLK (human); compound 10.0 µM): 17%
residual activity (AURKB (human); compound 0.1 µM): 110%
residual activity (AURKB (human); compound 1.0 µM): 96%
residual activity (AURKB (human); compound 10.0 µM): 43%
residual activity (EEF2K (human); compound 0.1 µM): 124%
residual activity (EEF2K (human); compound 1.0 µM): 114%
residual activity (EEF2K (human); compound 10.0 µM): 117%
residual activity (CSNK1D (human); compound 0.1 µM): 109%
residual activity (CSNK1D (human); compound 1.0 µM): 73%
residual activity (CSNK1D (human); compound 10.0 µM): 18%
residual activity (MAP3K9 (human); compound 0.1 µM): 54%
residual activity (MAP3K9 (human); compound 1.0 µM): 18%
residual activity (MAP3K9 (human); compound 10.0 µM): 6%
residual activity (PKN2 (human); compound 0.1 µM): 100%
residual activity (PKN2 (human); compound 1.0 µM): 76%
residual activity (PKN2 (human); compound 10.0 µM): 29%
residual activity (HIPK2 (human); compound 0.1 µM): 64%
residual activity (HIPK2 (human); compound 1.0 µM): 22%
residual activity (HIPK2 (human); compound 10.0 µM): 9%
residual activity (SYK (human); compound 0.1 µM): 96%
residual activity (SYK (human); compound 1.0 µM): 88%
residual activity (SYK (human); compound 10.0 µM): 56%
residual activity (IGF1R (human); compound 0.1 µM): 113%
residual activity (IGF1R (human); compound 1.0 µM): 87%
residual activity (IGF1R (human); compound 10.0 µM): 13%
residual activity (EPHB4 (human); compound 0.1 µM): 107%
residual activity (EPHB4 (human); compound 1.0 µM): 76%
residual activity (EPHB4 (human); compound 10.0 µM): 19%
residual activity (FLT1 (human); compound 0.1 µM): 100%
residual activity (FLT1 (human); compound 1.0 µM): 55%
residual activity (FLT1 (human); compound 10.0 µM): 22%
residual activity ([1]; compound 0.1 µM): 100%
residual activity ([1]; compound 1.0 µM): 93%
residual activity ([1]; compound 10.0 µM): 84%
residual activity ([2]; compound 0.1 µM): 94%
residual activity ([2]; compound 1.0 µM): 88%
residual activity ([2]; compound 10.0 µM): 98%
residual activity (MARK4 (human); compound 0.1 µM): 88%
residual activity (MARK4 (human); compound 1.0 µM): 82%
residual activity (MARK4 (human); compound 10.0 µM): 46%
residual activity (TTK (human); compound 0.1 µM): 87%
residual activity (TTK (human); compound 1.0 µM): 55%
residual activity (TTK (human); compound 10.0 µM): 24%
residual activity (GCK (human); compound 0.1 µM): 7%
residual activity (GCK (human); compound 1.0 µM): 6%
residual activity (GCK (human); compound 10.0 µM): 5%
residual activity (FGFR1 (human); compound 0.1 µM): 104%
residual activity (FGFR1 (human); compound 1.0 µM): 96%
residual activity (FGFR1 (human); compound 10.0 µM): 85%
residual activity (PAK6 (human); compound 0.1 µM): 85%
residual activity (PAK6 (human); compound 1.0 µM): 70%
residual activity (PAK6 (human); compound 10.0 µM): 31%
residual activity (MAPK1 (human); compound 0.1 µM): 81%
residual activity (MAPK1 (human); compound 1.0 µM): 35%
residual activity (MAPK1 (human); compound 10.0 µM): 6%
residual activity ([3]; compound 0.1 µM): 105%
residual activity ([3]; compound 1.0 µM): 57%
residual activity ([3]; compound 10.0 µM): 23%
residual activity (MAPK13 (human); compound 0.1 µM): 83%
residual activity (MAPK13 (human); compound 1.0 µM): 77%
residual activity (MAPK13 (human); compound 10.0 µM): 36%
residual activity (YES1 (human); compound 1.0 µM): 66%
residual activity (YES1 (human); compound 10.0 µM): 13%
residual activity (MAPK10 (human); compound 0.1 µM): 97%
residual activity (MAPK10 (human); compound 10.0 µM): 46%
residual activity (GSK3B (human); compound 0.1 µM): 68%
residual activity (GSK3B (human); compound 1.0 µM): 16%
residual activity (GSK3B (human); compound 10.0 µM): 4%
residual activity (MELK (human); compound 0.1 µM): 99%
residual activity (MELK (human); compound 1.0 µM): 57%
residual activity (MELK (human); compound 10.0 µM): 15%
